Where a name gives a salt, the structure may show the parent alone.
Legend:
[1] = Local tolerability of intranasal aqueous solution; type: in vivo; conditions: 45.00 mg/mL, pH 4.8
Procedure: The proposed formulations are calculated for a single puff of 50 µL/nostril.

[2] = pH of the tizanidine hydrochloride solutions; type: physicochemical; conditions: Tizanidine.HCl aqueous solutions, no excipients
[3] = animal data, local administration; cited from earlier work
[4] = cited from earlier work
[5] = Preliminary pharmacokinetics of tizanidine solutions in rabbits (IN, IM, PO); type: in vivo; conditions: 3.00 mg/kg of tizanidine hydrochloride
Procedure: Preliminary pharmacokinetic data in rabbits at the dose of 3.00 mg/kg of tizanidine hydrochloride by intranasal (IN), intramuscular (IM), and oral route (PO) were performed to test the intranasal absorption without any enhancer.

SMILES	tolerability by the nasal mucosa (redness or pain) [1]	pH [2]	activity compared with clonidine [3]	absorption by oral route ([4]; extensive first-pass effect)	T1/2z ([4]; oral route) [h]	Tmax ([4]; oral route) [h]	bioavailability ([5]; intranasal (IN) compared with intramuscular (IM))	intranasal absorption ([5]; intranasal (IN), without any enhancer)
Clc1ccc2nsnc2c1NC1=NCCN1 [Tizanidine.HCl]	tolerated by the nasal mucosa without any local side effect	4.8						
Clc1ccc2nsnc2c1NC1=NCCN1 [Tizanidine, 5-chloro-N-(4,5-dihydro-1H-imidazol-2-yl)-2,1,3-benzothia-diazol-4-amine]			equivalent activity	well and rapidly absorbed	1 to 2	1 to 2	close to that of intramuscular route (IM)	rapidly absorbed

From patent EP2338473A1, “Pharmaceutical dosage forms of tizanidine and administration routes thereof” (MDM S.p.A., priority 2009, dated 2011)
